Measured values published in ChEMBL document CHEMBL1128928, “Synthesis and biological properties of partially modified retro and retro-inverso pseudo peptides of arg-gly-asp (RGD)” (Bioorg Med Chem Lett, 1996).

Assays:
Type in all cases: functional
B16 [1] = experiment: Compound was evaluated for lung metastasis produced by 500 ug/mouse i.v. injection of B16-BL6 melanoma.; Range 44-154
Homo sapiens [2] = species on record: Homo sapiens; experiment: Compound was evaluated for inhibition of ADP-induced human platelet aggregation at concentration 1 mg/mL.
B16 [3] = experiment: Compound was evaluated for lung metastasis produced by 500 ug/mouse i.v. injection of B16-BL6 melanoma. Range 4-36
Homo sapiens [4] = species on record: Homo sapiens; experiment: Compound was evaluated for inhibition of ADP-induced human platelet aggregation.
B16 [5] = experiment: Compound was evaluated for lung metastasis produced by 500 ug/mouse i.v. injection of B16-BL6 melanoma,; Range 19-63

For `N=C(N)NCCC[C@H](N)C(=O)NCC(=O)N[C@@H](CC(=O)O)C(=O)N[C@@H](CO)C(=O)O`, the “No. of lung metastasis” value (B16 [1]) was 93 and the inhibition at 1000 µg/mL (Homo sapiens [2]) was 100%.

In the case of `N=C(N)NCCC[C@H](NC(=O)CC(=O)N[C@@H](CC(=O)O)C(=O)O)C(=O)O`, the “No. of lung metastasis” value (B16 [3]) is reported as 19, the IC50 (Homo sapiens [4]) is reported as 2400 µM and the inhibition at 1000 µg/mL (Homo sapiens [2]) is reported as 57%.

In the case of `N=C(N)NCCC[C@@H](NC(=O)CC(=O)N[C@@H](CC(=O)O)C(=O)O)C(=O)O`, the “No. of lung metastasis” value (B16 [5]) is reported as 38 and the inhibition at 1000 µg/mL (Homo sapiens [2]) is reported as 53%.
